Here are results for 12 compounds from US20250276066A1, “METHODS, COMPOSITIONS AND COMPOUNDS FOR TREATING AGE-RELATED DISEASES AND CONDITIONS” (GERO PTE. LTD., priority 2021, published 2025).

Like-named read-outs stand apart in the source and are kept apart here.

For one series, the system named is C. elegans. Kind of series: C. elegans lifespan screening (survival) assay. The class given is in vivo, Caenorhabditis elegans. Conditions: for Mean LS ext., %: mean lifespan extension vs control, doses (uM); for Mean LS*: mean lifespan, dose uM: Panobinostat 1, Entinostat 10, Topotecan 5, PI-103 10, PHA-793887 10, Triptolide 10, KU-0063794 10, Trichostatin A 2, control 22.2 d. The text has this: • 1. […] Then, with the help of linear gene-wise regression, we identified the transcriptomic aging signature, the list of genes that have statistically significant association with age rescaled by lifespan (the first list). • 3. Genes in the aging signature that have positive correlation with age rescaled by lifespan are over-expressed in late life of the animals, and if a gene's correlation is negative its gene expression decreases with age. • 4. […] The identified aging signature represents a vector of the aging-related changes of gene expression. […] This was done by projecting out all gene expression changes along the aging signature. • 6. After that, by gene-wise linear regression, we identified the list of genes that had statistically significant correlation with lifespan of long-lived strains. That list represents the PI3K-null signature. Genes in the PI3K-null signature that have positive correlation with lifespan are over-expressed in long-lived strains, and vise versa, genes with negative correlations have lower gene expression levels in long-lived mutants with respect to the control lines. • 7. […] Therefore, we would affect the aging process and either slow-down it or reverse it. • 8. We combined those lists, and identified the lists of their human orthologs. • 9. The inhibition of these genes or/and the proteins translated from those genes in humans will also produce life-extending effects. • 10. The predictive value of the aging signature was previously experimentally tested in paper. Along the lines of paper, to test the predictive value of the PI3K-null signature, we identified novel life-extending pharmacological interventions by comparing this signatures with gene expression profile changes in response to pharmacologic perturbations from the Connectivity Map (CMAP) database. Using the PI3K-null signature, we predicted perturbagen-compounds opposing the transcriptomic signature distinguishing long-lived C. elegans mutant strains with a slow aging rate from short-lived strains with a fast aging rate (see Table […] and T1b). To eliminate the confounding effect of different biological ages of nematodes in experimental cohorts, we applied the algorithm developed earlier. From the top of predicted compounds, we selected 8 compounds for a follow-up lifespan screening in C. elegans assay (see Figure F1, Table T2). • 11. We successfully tested the selected compounds in C. elegans survival assay (see Figure F1, Table T2). All 8 compounds produced a significant lifespan extension effect (according to the Log-rank Mantel-Cox method, all results are with p<0.05). Therefore, we experimentally validated the PI3K-null signature's pipeline for the identification of new life-extending compounds. • 12. […] CDK7, CHEK2, CAPN1, CTSB, HSP90AB1, HSP90AA1, HSPA5, NFKB1, NPC1, PABPC1, ABCB11, ABCB1, PLK1, PLK3, ADRA2A, ADRA2C, ADRA2B, TUBB6, SENP8, SENP6, SENP7, MMP14, MMP13, MMP8, MMP3, MMP1, MAPKAPK2, CTSL, CTSK, CTSS, ATXN2, TBXAS1, CREBBP, PDGFRA, FLT4, FLT1, KDR, PDGFRB, FLT3, KIT, CSF1R, IKBKB, IKBKE, PGGT1B, FAAH, GFER, MAPK14, MAPK12, PRKAA1, ABCG2, ADAM17, BACE2, BACE1, TUBB6, CA7, CA2, CA1, CA5A, CA12, CA9, CA4, CTSB, FEN1, HDAC1, HDAC2, HDAC3, CBX1, SLC6A4, SLC6A2, SLC6A3, PPARD, PPARG, PPARA, PSEN2, HTR7, ADRA1B, SMN2, FYN, SRC, LCK, LYN, TARDBP, CLK2, CLK4, USP2, GBA, RECQL, BLM, WRN, CDK2, PRKAG3, TFPI, LTA4H, DPP7, BACE2, BACE1, CAPN1, CTSB, IGF1R, INSR, EYA2, HSPA5, NFKB1, TCF7L2, TARDBP, BRD4. • 13. […] Lifespan assays were conducted at 20° C., as described previously. Briefly, synchronous cultures were initiated by lysis of gravid hermaphrodites in alkaline hypochlorite. Worms were selected at the L4 larval stage, placed 50 worms per plate, and transferred at 1- to 2-day intervals onto fresh plates during days 1-7, and at 2- to 3-day intervals after that. […]

For another series, the system named is mice given Doxorubicin. As to the kind of experiment: Example 33: doxorubicin-induced liver damage (plasma AST). Particulars: mouse, in vivo. Here is the method: Doxorubicin if administered by mice reduces total body weight and induces expression of FOXO4 foci and IL-6 in the liver.
On the indicated time points, whole blood samples are collected in a Microvette with Lithium Heparin (Sarstedt) for plasma separation and spun for 10 min at 4.6×g. The (clear) supernatant is transferred into regular 1.5 ml tubes and spun again for 5 min at 4.6×g. The supernatants are transferred again into 1.5 ml tubes, snap frozen in liquid N2 and stored at −80° C. [AST] is measured using an AST Activity Assay Kit (Sigma). The samples are incubated with 100 μl reaction mix in a 96 well plate and place at 37° C. The absorbance at 450 nm is determined after 2 minutes for baseline analysis and after 40 minutes for a final analysis. [Urea] is measured using a QuantiChrom Urea Assay Kit (Gentaur). The samples are incubated in 200 μl reaction mix for 10 minutes at room temperature before absorbance is measured at 520 nm. [Creatinine] is measured using Creatinine Assay Kit (Sigma). Samples are incubated with 50 μl reaction mix at 37° C. for 60 minutes and the absorbance is measured at 570 nm. Ratios comparing plasma values after treatment compared to baseline are determined and plotted as % over baseline in scatter plots.

For series [1] the following is noted: patient; cited from earlier work.
In the next series the test system is CIA-induced DBA/1J mice. Kind of series: Example 30: collagen-induced arthritis (CIA). It counts as in vivo. Particulars: 0.2 mg/kg.
A further series relates to D. melanogaster. Conditions: cited from earlier work.
Another series concerns Caenorhabditis elegans. Particulars: not replicated in another study; cited from earlier work.

In the case of `Cc1[nH]c2ccccc2c1CCNCc1ccc(/C=C/C(=O)NO)cc1` [Compound 1, Panobinostat], in the series on C. elegans, the “Mean LS ext., %” value is reported as 8.1% and the “Mean LS*” value worked out at 24 days.

Turning to `Nc1ccccc1NC(=O)c1ccc(CNC(=O)OCc2cccnc2)cc1` [Compound 2, Entinostat], in the series on C. elegans, the “Mean LS ext., %” value came to 8.6% and the “Mean LS*” value worked out at 24.1 days. In the same order, the values of `CC[C@@]1(O)C(=O)OCc2c1cc1n(c2=O)Cc2cc3c(CN(C)C)c(O)ccc3nc2-1` [Compound 3, Topotecan] are 9.7% and 24.3 days. In the case of `Oc1cccc(-c2nc(N3CCOCC3)c3oc4ncccc4c3n2)c1` [Compound 4, PI-103], in the series with C. elegans, the “Mean LS ext., %” value is 8.6% and the “Mean LS*” value was determined as 24.1 days. As for `CC(C)CC(=O)Nc1[nH]nc2c1CN(C(=O)C1CCN(C)CC1)C2(C)C` [Compound 5, PHA-793887], in the series on C. elegans, the “Mean LS ext., %” value is 6.9% and the “Mean LS*” value is 23.7 days.

Consider `CC(C)[C@]12O[C@H]1[C@@H]1O[C@]13[C@]1(O[C@H]1C[C@H]1C4=C(CC[C@@]13C)C(=O)OC4)[C@@H]2O` [Compound 6, Triptolide], for which, in the series with C. elegans, the “Mean LS ext., %” value is 10% and the “Mean LS*” value came out at 24.4 days.

Take `COc1ccc(-c2ccc3c(N4CCOCC4)nc(N4C[C@@H](C)O[C@@H](C)C4)nc3n2)cc1CO` [Compound 7, KU-0063794]: in the series on C. elegans, the “Mean LS ext., %” value is listed as 10.6% and the “Mean LS*” value was 24.5 days. On to `CC(/C=C/C(=O)NO)=C\[C@@H](C)C(=O)c1ccc(N(C)C)cc1` [Compound 8, Trichostatin A], for which, in the series on C. elegans, the “Mean LS ext., %” value was 10% and the “Mean LS*” value came to 24.4 days. For `COc1cccc2c1C(=O)c1c(O)c3c(c(O)c1C2=O)C[C@@](O)(C(=O)CO)C[C@@H]3O[C@H]1C[C@H](N)[C@H](O)[C@H](C)O1` [Doxorubicin], the “plasma levels of Aspartate Aminotransferase, AST” value in the series with mice given Doxorubicin is “strongly induce plasma levels of Aspartate Aminotransferase”. Moreover, the “total lifetime dose above which myocardial damage may lead to congestive heart failure” value in series [1] is recorded as “exceeds 550 mg/m^2”. Take `CN(Cc1cnc2nc(N)nc(N)c2n1)c1ccc(C(=O)N[C@@H](CCC(=O)O)C(=O)O)cc1` [MTX, methotrexate]: the development of arthritis result in the series on CIA-induced DBA/1J mice is given as “strong inhibitory effect on the development of arthritis”. As for `O=C(c1ccc(F)cc1)C1CCN(CCn2c(=O)[nH]c3ccccc3c2=O)CC1` [ketanserin], the lifespan entry in the series with D. melanogaster (fixed-diet conditions) was “did not affect lifespan”; in the series with D. melanogaster (flies allowed to chose nutrients), “increased lifespan”. With `CN1CCN2c3ccccc3Cc3ccccc3C2C1` (stereo not shown) [mianserin], in the series with Caenorhabditis elegans, the “lifespan (prolongevity effect)” value is on record as “prolongevity effect”.
